Experimental data taken from patent publication US20130337051A1, “ADVANCED ACTIVE LIPOSOMAL LOADING OF POORLY WATER-SOLUBLE SUBSTANCES” (priority 2011, published 2013).
In brackets after ≈: the same amount, converted by molar mass.

Key:
[1] = Active loading of pre-formed liposomes (encapsulation efficiency, final product); type: physicochemical; settings: solubilized in pure PEG200 and HPβCD; same pre-formed liposomes (calcium acetate)
Description: Liposomes may consist of different phospholipids and cholesterol in several molar ratios in order to modify the transition/processing temperature and particle stability in plasma. […] Components are dissolved in ethanol or iso-propanol. Additionally, for the purpose of increasing the (in vivo) particle stability and enhanced brain delivery, micelles consisting of DSPE-PEG-GSH (up to 5 mol %), which is synthesized before preparation of the liposomes using DSPE-PEG-MAL and fresh solutions of reduced glutathione, and/or DSPE-mPEG (Mw 2000) may be added to the solution at different mol-percentages (up to 5-10 mol % in total). The (lipid) mixture is injected in aqueous solutions containing active loading buffer of different ionic strengths (1-1000 mM), e.g. 2 mg/mL ammonium sulfate or 1 mg/mL calcium acetate. After stirring, the formed vesicles are either extruded through membranes or homogenized in an emulsifier to create liposomes of a uniform size. Alternatively, DSPE-PEG-GSH or DSPE-mPEG is added after preparation of the liposomes by incubation at 25° C. up to 60° C. for 2 up to 24 hours (depending on the phase transition temperature of the lipid mixture and the temperature sensitivity of the agent). […]
The compound is measured with UV at 295 nm at concentrations between 5-60 μg/ml. […]

physchem = type: physicochemical
Description: A chemical molecule (compound B) is presented with a low molecular weight. […] The solubility is increased up to 8 mg/ml in PEG200.
A calpain inhibitor (PD 150606) is presented, having a low molecular weight of 306 Da. […] The solubility is increased up to 8 mg/ml in PEG200.

[2] = pH 7, aqueous with cosolvent or surfactant or cyclodextrin

| active loading into pre-formed liposomes [1] | solubility in PEG200 (physchem) | solubility in water (physchem) | stability at basic pH (physchem) | solubility (physchem; 20 °C) [µg/mL] | solubility (physchem; aqueous with cosolvent or surfactant or cyclodextrin) [µg/mL] | solubility (physchem; [2]) [µg/mL] | solubility (physchem; pH 5, aqueous buffer) [µg/mL] | solubility (physchem; pH 6, aqueous buffer) [µg/mL] | solubility (physchem; pH 7, aqueous buffer) [µg/mL] | solubility (physchem; pH 8, aqueous buffer) [µg/mL] | Compound |
| --- | --- | --- | --- | --- | --- | --- | --- | --- | --- | --- | --- |
| no active loading | up to 8 mg/ml | below 0.05 mg/ml | decomposes |  |  |  |  |  |  |  | O=C(O)/C(S)=C/c1ccc(I)cc1 [PD 150606] |
|  |  |  |  | < 100 | 2200 (≈ 4890 µM) | ≥ 5000 |  |  |  |  | C[C@@H](Oc1cc(-c2cnn(C3CCNCC3)c2)cnc1N)c1c(Cl)ccc(F)c1Cl [Crizotinib] |
|  |  |  |  |  |  | ≤ 2200 | 3 (≈ 18 µM) | 20 (≈ 120 µM) | 350 (≈ 2090 µM) | 900 (≈ 5390 µM) | O=C(O)c1cccnc1C(=O)O [quinolinic acid] |
